This note sets out measurements from ChEMBL document CHEMBL4392883, “Konamycins A and B and Rubromycins CA1 and CA2, Aromatic Polyketides from the Tunicate-Derived Streptomyces hyaluromycini MB-PO13T” (2019).

Structures are written as SMILES. ≈ marks a conversion by molar mass, not a printed value.

What all share (assay type): functional
Test [1] is described as follows: Antioxidant activity assessed as DPPH radical scavenging activity.
The test system of a further test is Escherichia coli. The test is described as follows: Antimicrobial activity against Escherichia coli NIH-JC2 measured after 20 hrs. The settings on record: NIH-JC2, 20 h.
A further test concerns Staphylococcus aureus. Nature of the test: Antimicrobial activity against Staphylococcus aureus IFO 12732 measured after 20 hrs. The settings on record: IFO 12732, 20 h.
Test [2] deals with Mycolicibacterium smegmatis. The test is described as follows: Antimicrobial activity against Mycobacterium smegmatis NBRC 3207 measured after 20 hrs. The settings on record: NBRC 3207, 20 h.
The next test deals with Bacillus cereus. The test is described as follows: Antimicrobial activity against Bacillus cereus NBRC 15305 measured after 20 hrs. The settings on record: NBRC 15305, 20 h.
A further test has as its system Kocuria rhizophila. Nature of the test: Antimicrobial activity against Kocuria rhizophila ATCC 9341 measured after 20 hrs. Particulars: DC2201 .
In the next test the test system is Enterococcus faecalis. The test is described as follows: Antimicrobial activity against Enterococcus faecalis NBRC 100480 measured after 20 hrs.
A further test has as its system Candida albicans. Nature of the test: Antimicrobial activity against Candida albicans NBRC 1594 measured after 20 hrs. Particulars: NBRC 1594, 20 h.
Another test has as its system Kluyveromyces marxianus. The test is described as follows: Antimicrobial activity against Kluyveromyces fragilis ATCC 8635 measured after 20 hrs. Particulars: ATCC 8635, 20 h.
Test [3] is described as follows: Antioxidant activity assessed as superoxide dismutase-like activity measured after 20 mins by WST-based assay.

For the compound `Cc1c(C)c2c(c(C)c1O)CCC(C)(C(=O)O)O2` (stereo not given), in test [1], the SC50 came out at 9 µM.

`COC1=CC(=O)c2c(O)c3c(c(O)c2C1=O)O[C@@]1(CCc2cc4cc(C(=O)O)oc(=O)c4c(O)c2O1)C3`: the MIC against Escherichia coli is greater than 100 µg/mL; against Staphylococcus aureus it was 0.2 µg/mL (≈ 0.393 µM); in [2], 3.1 µg/mL (≈ 6.1 µM); against Bacillus cereus, 12.5 µg/mL (≈ 24.6 µM); with Kocuria rhizophila, 12.5 µg/mL (≈ 24.6 µM); against Enterococcus faecalis, 100 µg/mL (≈ 197 µM). The MIC in the test on Candida albicans is 6.3 µg/mL (≈ 12.4 µM); in the test with Kluyveromyces marxianus, 12.5 µg/mL (≈ 24.6 µM).

Consider `O=C(O)c1cc(O)c(O)c(O)c1`, for which the SC50 in [3] was found to be 102 µM.

As for `COC1=CC(=O)c2c(O)c3c(c(O)c2C1=O)O[C@@]1(CCc2cc4cc(C(=O)O)oc(=O)c4c(O)c2O1)[C@H]3O`, the MIC in the test with Escherichia coli was greater than 100 µg/mL; against Staphylococcus aureus, 0.4 µg/mL (≈ 0.763 µM); in test [2] it was 12.5 µg/mL (≈ 23.8 µM); in the test with Bacillus cereus it was 50 µg/mL (≈ 95.3 µM); in the test on Kocuria rhizophila it was 50 µg/mL (≈ 95.3 µM); in the test with Enterococcus faecalis, greater than 100 µg/mL. The MIC against Candida albicans and with Kluyveromyces marxianus was greater than 100 µg/mL throughout.

Turning to `CC(=O)O[C@H]1C2=C(C=C3C(=O)c4c(ccc([C@H]5CC[C@H](O)[C@@H](C)O5)c4O)C(O)=C32)C(=O)[C@@](C)(O)[C@@H]1OC(=O)CCC(=O)O`, the SC50 came to 21 µM in [1] and 66 µM in test [3].

A word on the MIC: it is the least concentration at which growth counts as inhibited. A lower MIC goes with greater potency.
